In paper PMC11396129, “Oxindole–benzothiazole hybrids as CDK2 inhibitors and anticancer agents: design, synthesis and biological evaluation” (BMC Chemistry, 2024):

Columns and labels:
[1] = test system: CCRF-CEM; assay: NCI 60 panel growth inhibition (SRB), leukemia; type: cell-based, human; conditions: 10 μM
Procedure: (§1) Screening of cytotoxic activity against a panel of sixty human tumor cell lines The selected compounds by NCI were evaluated for their anticancer activity in a two- stage process. […] Then, the output from the single dose screen is reported as a mean graph. […] Assay protocol. […] For a typical screening experiment, cells are inoculated into 96 well microtiter plates in 100 µL at plating densities ranging from 5000 to 40,000 cells/well depending on the doubling time of individual cell lines. […] After 24 h, two plates of each cell line are fixed in situ with TCA, to represent a measurement of the cell population for each cell line at the time of drug addition (Tz). The experimental drugs are solubilized in dimethyl sulfoxide at 400-fold the desired final maximum test concentration and stored frozen prior to use. At the time of drug addition, an aliquot of frozen concentrate is thawed and diluted to twice the desired final maximum test concentration with complete medium containing 50 µg/mL gentamicin. Additional four, 10-fold or ½ log serial dilutions are made to provide a total of five drug concentrations plus control. […] For adherent cells, the assay is terminated by the addition of cold TCA. […] The supernatant is discarded, and the plates are washed five times with tap water and air dried. […] Using the seven absorbance measurements [time zero, (Tz), control growth, (C), and test growth in the presence of drug at the five concentration levels (Ti)], the percentage growth is calculated at each of the drug concentrations levels. Percentage growth inhibition is calculated as: [(Ti Tz)/(C–Tz)] x 100 for concentrations for which Ti>/=Tz and [(Ti-Tz)/Tz] x 100 for concentrations for which Ti < Tz. Three dose response parameters are calculated for each experimental agent. […] The drug concentration resulting in total growth inhibition (TGI) is calculated from Ti = Tz. […] Values are calculated for each of these three parameters if the level of activity is reached; however, if the effect is not reached or is exceeded, the value for that parameter is expressed as greater or less than the maximum or minimum concentration tested.

[2] = test system: HL-60(TB); assay: NCI 60 panel growth inhibition (SRB), leukemia; type: cell-based, human; conditions: HL-60(TB), 10 μM
Procedure: as §1

[3] = test system: RPMI-8226; assay: NCI 60 panel growth inhibition (SRB), leukemia; type: cell-based, human; conditions: RPMI-8226, 10 μM
Procedure: as §1

[4] = test system: A549/ATCC; assay: NCI 60 panel growth inhibition (SRB), non-small cell lung cancer; type: cell-based, human; conditions: 10 μM
Procedure: as §1

[5] = test system: EKVX; assay: as above; type: cell-based, human; conditions: 10 μM
Procedure: as §1

[6] = test system: HOP-62; assay: as above; type: cell-based, human; conditions: HOP-62, 10 μM
Procedure: as §1

[7] = test system: HOP-92; assay: as above; type: cell-based, human; conditions: HOP-92, 10 μM
Procedure: as §1

[8] = test system: NCI-H226; assay: as above; type: cell-based, human; conditions: NCI-H226, 10 μM
Procedure: as §1

[9] = test system: NCI-H23; assay: as above; type: cell-based, human; conditions: NCI-H23, 10 μM
Procedure: as §1

[10] = test system: NCI-H322M; assay: as above; type: cell-based, human; conditions: 10 μM
Procedure: as §1

[11] = test system: NCI-H460; assay: as above; type: cell-based, human; conditions: NCI-H460, 10 μM
Procedure: as §1

[12] = test system: NCI-H522; assay: as above; type: cell-based, human; conditions: NCI-H522, 10 μM
Procedure: as §1

[13] = test system: IGROV1; assay: NCI 60 panel growth inhibition (SRB), ovarian cancer; type: cell-based, human; conditions: IGROV1, 10 μM
Procedure: as §1

[14] = test system: NCI/ADR-RES; assay: as above; type: cell-based, human; conditions: 10 μM
Procedure: as §1

[15] = test system: OVCAR-3; assay: as above; type: cell-based, human; conditions: OVCAR-3, 10 μM
Procedure: as §1

[16] = test system: OVCAR-4; assay: as above; type: cell-based, human; conditions: OVCAR-4, 10 μM
Procedure: as §1

[17] = test system: OVCAR-5; assay: as above; type: cell-based, human; conditions: OVCAR-5, 10 μM
Procedure: as §1

[18] = test system: OVCAR-8; assay: as above; type: cell-based, human; conditions: OVCAR-8, 10 μM
Procedure: as §1

[19] = test system: SK-OV-3; assay: as above; type: cell-based, human; conditions: SK-OV-3, 10 μM
Procedure: as §1

[20] = test system: 786-0; assay: NCI 60 panel growth inhibition (SRB), renal cancer; type: cell-based, human; conditions: 786-0, 10 μM
Procedure: as §1

[21] = test system: A498; assay: NCI 60 panel growth inhibition (SRB), renal cancer; type: cell-based, human; conditions: A498, 10 μM
Procedure: as §1

[22] = test system: ACHN; assay: NCI 60 panel growth inhibition (SRB), renal cancer; type: cell-based, human; conditions: 10 μM
Procedure: as §1

[23] = test system: CAKI-1; assay: NCI 60 panel growth inhibition (SRB), renal cancer; type: cell-based, human; conditions: CAKI-1, 10 μM
Procedure: as §1

[24] = test system: RXF 393; assay: NCI 60 panel growth inhibition (SRB), renal cancer; type: cell-based, human; conditions: RXF 393, 10 μM
Procedure: as §1

[25] = test system: SN12C; assay: NCI 60 panel growth inhibition (SRB), renal cancer; type: cell-based, human; conditions: 10 μM
Procedure: as §1

[26] = test system: TK-10; assay: NCI 60 panel growth inhibition (SRB), renal cancer; type: cell-based, human; conditions: TK-10, 10 μM
Procedure: as §1

[27] = test system: UO-31; assay: NCI 60 panel growth inhibition (SRB), renal cancer; type: cell-based, human; conditions: UO-31, 10 μM
Procedure: as §1

[28] = test system: BT-549; assay: NCI 60 panel growth inhibition (SRB), breast cancer; type: cell-based, human; conditions: BT-549, 10 μM
Procedure: as §1

[29] = test system: HS 578T; assay: as above; type: cell-based, human; conditions: 10 μM
Procedure: as §1

[30] = test system: MCF7; assay: as above; type: cell-based, human; conditions: MCF7, 10 μM
Procedure: as §1

[31] = test system: MDA-MB-231/ATCC; assay: as above; type: cell-based, human; conditions: 10 μM
Procedure: as §1

[32] = test system: MDA-MB-468; assay: as above; type: cell-based, human; conditions: MDA-MB-468, 10 μM
Procedure: as §1

[33] = test system: T-47D; assay: as above; type: cell-based, human; conditions: 10 μM
Procedure: as §1

[34] = test system: NCI 60 cancer cell line panel; assay: NCI 60 panel growth inhibition (SRB), whole panel; type: cell-based, human; conditions: mean over NCI 60 panel, 10 μM
Procedure: as §1

Row | SMILES | GI% [1] [%] | GI% [2] | GI% [3] [%] | GI% [4] [%] | GI% [5] [%] | GI% [6] | GI% [7] [%] | GI% [8] [%] | GI% [9] [%] | GI% [10] | GI% [11] | GI% [12] | GI% [13] | GI% [14] | GI% [15] | GI% [16] [%] | GI% [17] | GI% [18] | GI% [19] | GI% [20] | also measured
1 | COc1cccc(-c2nc3ccccc3s2)c1OCC(=O)NN=C1C(=O)Nc2ccc(C)cc21 [Compound 9h, 2-(2-(Benzo[d]thiazol-2-yl)-6-methoxyphenoxy)-N′-(5-methyl-2-oxoindolin-3-ylidene)acetohydrazide] | 47.56 | – (GI% < 5%) | 54.14 | 24.44 | 27.92 | – (GI% < 5%) | 23.13 | 26.01 | 13.40 | 6.24% | – (GI% < 5%) | – (GI% < 5%) | 6.64% | 14.65% | – (GI% < 5%) | 20.46 | – (GI% < 5%) | 12.04% | 14.52% | 9.21% | GI% [21]: – (GI% < 5%); GI% [22]: 11.83%; GI% [23]: 36.68%; GI% [24]: 25.38%; GI% [25]: 9.88%; GI% [26]: – (GI% < 5%); GI% [27]: 38.34%; GI% [28]: 18.44%; GI% [29]: 9.01%; GI% [30]: 37.74%; GI% [31]: 13.89%; GI% [32]: 26.10%; GI% [33]: 41.06%; Mean GI% [34]: 9.27%; melting point: 244 to 246 °C
2 | COc1cccc(-c2nc3ccccc3s2)c1OCC(=O)NN=C1C(=O)Nc2ccc([N+](=O)[O-])cc21 [Compound 9j, 2-(2-(Benzo[d]thiazol-2-yl)-6-methoxyphenoxy)-N′-(5-nitro-2-oxoindolin-3-ylidene)acetohydrazide] | 34.81 | – (GI% < 5%) | 22.11 | 5.97 | 26.64 | – (GI% < 5%) | 30.70 | 21.82 | 22.82 | 6.18% | – (GI% < 5%) | – (GI% < 5%) | – (GI% < 5%) | 6.51% | – (GI% < 5%) | 5.61 | – (GI% < 5%) | – (GI% < 5%) | – (GI% < 5%) | – (GI% < 5%) | GI% [21]: – (GI% < 5%); GI% [22]: 11.44%; GI% [23]: 28.19%; GI% [24]: 9.05%; GI% [25]: 11.67%; GI% [26]: – (GI% < 5%); GI% [27]: 25.41%; GI% [28]: – (GI% < 5%); GI% [29]: – (GI% < 5%); GI% [30]: 25.07%; GI% [31]: 8.73%; GI% [32]: 6.21%; GI% [33]: – (GI% < 5%); Mean GI% [34]: – (GI% < 5%); melting point: 276 to 278 °C
3 | O=C(COc1ccccc1-c1nc2ccccc2s1)NN=C1C(=O)Nc2ccccc21 [Compound 9a, 2-(2-(Benzo[d]thiazol-2-yl)phenoxy)-N′-(2-oxoindolin-3-ylidene)acetohydrazide] | 20.22 | – (GI% < 5%) | 21.80 | 11.63 | 37.48 | – (GI% < 5%) | 6.37 | 23.61 | 6.36 | – (GI% < 5%) | – (GI% < 5%) | – (GI% < 5%) | – (GI% < 5%) | – (GI% < 5%) | – (GI% < 5%) | 13.08 | – (GI% < 5%) | – (GI% < 5%) | – (GI% < 5%) | – (GI% < 5%) | GI% [21]: – (GI% < 5%); GI% [22]: – (GI% < 5%); GI% [23]: 22.46%; GI% [24]: 5.86%; GI% [25]: 7.64%; GI% [26]: – (GI% < 5%); GI% [27]: 26.54%; GI% [28]: – (GI% < 5%); GI% [29]: 5.85%; GI% [30]: 25.11%; GI% [31]: – (GI% < 5%); GI% [32]: – (GI% < 5%); GI% [33]: 12.02%; melting point: 238 to 240 °C
4 | CNC(=O)c1nn(C)c2c1C(C)(C)Cc1cnc(Nc3ccc(N4CCN(C)CC4)cc3)nc1-2 [Milciclib, reference compound] | 89.60 | 127.0% | 99.60 | 108 | 94.3 | 109.50% | 96.20 | 87.70 | 97.60 | 84.90% | 92.50% | 129.40% | 97.50% | 90.10% | 79.30% | 87.10 | 90.90% | 91.10% | 116.90% | 87.70% | GI% [21]: 161.60%; GI% [22]: 90.4%; GI% [23]: 92.30%; GI% [24]: 148.20%; GI% [25]: 88.70%; GI% [26]: 112.5%; GI% [27]: 108.7%; GI% [28]: 94.80%; GI% [30]: 89.60%; GI% [31]: 85.30%; GI% [32]: 113.40%; GI% [33]: 105.70%; Mean GI% [34]: > 100%; Mean GI% ([34]; listed as milciclib): more than 100%
